Reference: patent publication US20230055705A1, “SUBSTITUTED THIOPHENE CARBOXAMIDES AND DERIVATIVES THEREOF” (Bayer Aktiengesellschaft, priority 2019, published 2023)

What was measured:
[1] = system: Xanthomonas campestris pv. campestris; assay: Xanthomonas campestris pv. campestris in vitro cell test; assay type: cell-based; settings: 20 ppm of active ingredient, 24 h incubation, read-out: efficacy (inhibition of bacteria growth)
Method: • Solvent: DMSO • Culture medium: LB broth medium (Luria Broth Miller) Sigma • Inoculum: bacteria suspension
Compounds were solubilized in DMSO and the solution used to prepare the required range of concentrations. The final concentration of DMSO used in the assay was ≤1%.
(§1) Inoculum was prepared from a pre-culture of bacteria grown in liquid medium and diluted to the desired optical density (OD).
(§2) Compounds were evaluated for their ability to inhibit bacteria growth in liquid culture assay. The compounds were added in the desired concentrations to culture medium containing the bacteria suspension. After 24 h of incubation, the efficacy of compounds was determined by spectrometric measurement of bacteria growth. Inhibition was determined by comparing the absorbance values in wells containing the compounds with the absorbance in control wells without active ingredients.

[2] = LogP by HPLC on reversed phase columns (EEC directive 79/831 Annex V.A8); assay type: physicochemical; settings: reversed phase HPLC columns
In short: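 Reversed-phase HPLC per EEC directive 79/831 Annex V.A8. Calibrated with straight-chain alkan-2-ones (C3–C16) of known LogP, LogP from retention times by linear interpolation between successive alkanones. Lambda-max taken from UV spectra (200–400 nm) at chromatographic peak maxima.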

[3] = system: Peronospora parasitica; assay: In vivo preventive test on Peronospora parasitica (Crucifer downy mildew); settings: Hyaloperonospora parasitica, in Brassica oleracea, 120 h, cabbage, evaluated 5 days after inoculation, read-out: efficacy; for pest or weed control at 31 ppm: 31 ppm of active ingredient; for pest or weed control at 125 ppm: 125 ppm of active ingredient; for pest or weed control at 500 ppm: 500 ppm of active ingredient
In short: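 Young cabbage plants were sprayed with compound in acetone/DMSO/Tween diluted with water, then inoculated 72 h later with a Peronospora parasitica spore suspension. Plants were kept 5 days at 20 °C and 100% RH. Efficacy was scored with 0% equal to solvent-treated controls and 100% meaning no disease.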

[4] = system: salicylate responsive promoter sequence of the PR1 (pathogenesis-related protein I) gene (AT2G14610); assay: Induction of defense gene expression in Arabidopsis thaliana (PR1 promoter-GFP reporter plants); assay type: in vivo; settings: Arabidopsis thaliana, 72 h, 3rd day after spraying, mock treated leaves set as 1.00, read-out: relative fluorescence value; for fold induction at 75 ppm: 75 ppm of compound
In short: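 Transgenic A. thaliana carrying GFP under the salicylate-responsive PR1 promoter, grown five days, then sprayed with compounds. Whole-plant fluorescence imaged and quantified on day 3 post-spray, expressed relative to mock-treated leaf background set at 1.00.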

[5] = system: Pseudomonas syringae pv. tomato; assay: In vivo preventive test on Pseudomonas syringae pv. tomato (bacterial speck on tomato); settings: 31 ppm of active ingredient, evaluated 5 or 6 days after inoculation, read-out: efficacy
Method: (§3) The tested active ingredients were prepared by homogenization in a mixture of acetone/Dimethyl sulfoxide/Tween®, and then diluted with water to obtain the desired active material concentration. The young plants of tomato were treated by spraying the active ingredient prepared as described above. Control plants were treated only with an aqueous solution of acetone/Dimethyl sulfoxide/Tween®.
After 72 hours, the plants were contaminated by spraying the leaves with an aqueous bacteria suspension of Pseudomonas syringae pv. tomato. The contaminated tomato plants were incubated for 4 days in saturated atmosphere at 22° C. day/20° C. night—70% HR and then for 1 or 2 days at 22° C. day/20° C. night at 70-80% relative humidity.
The test was evaluated 5 or 6 days after the inoculation. 0% means an efficacy which corresponds to that of the control plants while an efficacy of 100% means that no disease was observed.
Compounds CMP1 and CMP4 were tested in an in vivo preventive test on Pseudomonas syringae pv. tomato (bacterial speck on tomato) in the same conditions as described in Example J.

[6] = system: Uromyces appendiculatus; assay: In vivo preventive test on Uromyces appendiculatus (bean rust); settings: 240 h, evaluated 10 days after inoculation, read-out: efficacy; for pest or weed control at 125 ppm: 125 ppm of active ingredient; for pest or weed control at 500 ppm: 500 ppm of active ingredient
In short: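 Young bean plants sprayed with compound in acetone/DMSO/Tween diluted in water, inoculated 72 h later with U. appendiculatus spore suspension. Held 24 h at 20 °C, 100% RH, then 9 days at 20 °C, 70-80% RH. Efficacy scored 10 days post-inoculation versus solvent-treated controls (0% = control, 100% = no disease).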

[7] = system: Pseudomonas syringae pv. tomato; assay: Pseudomonas syringae pv. tomato in vitro cell test; assay type: cell-based; settings: 20 ppm of active ingredient, 24 h incubation, read-out: efficacy (inhibition of bacteria growth)
Method: Culture medium: LB broth medium (Luria Broth Miller) Sigma
Inoculum: bacteria suspension
Compounds were solubilized in DMSO and the solution used to prepare the required range of concentrations. The final concentration of DMSO used in the assay was 1%.
as §1, §2

[8] = system: Colletotrichum lindemuthianum; assay: In vivo preventive test on Colletotrichum lindemuthianum (Antrachnose on bean); settings: 144 h, inoculation 72 h after spraying, evaluated 6 days after inoculation, read-out: efficacy; for pest or weed control at 31 ppm: 31 ppm of active ingredient
Method: as §3, with “bean” for “tomato”
After 72 hours, the plants were contaminated by spraying the leaves with an aqueous suspension of Colletotrichum lindemuthianum spores. The contaminated bean plants were incubated for 24 hours at 20° C. and at 100% relative humidity and then for 5 days at 20° C. and at 90% relative humidity. The test was evaluated 6 days after the inoculation. 0% means an efficacy which corresponds to that of the control plants while an efficacy of 100% means that no disease was observed.
Compound CMP1 was tested in an in vivo preventive test on Colletotrichum lindemuthianum (Antrachnose on bean) in the same conditions as described in Example F.

[9] = system: Colletotrichum lindemuthianum; assay: Colletotrichum lindemuthianum in vitro cell test; assay type: cell-based; settings: 144 h, 20 ppm of active ingredient, 6 days incubation, read-out: efficacy (inhibition of fungal growth)
Method: (§4) • Solvent: DMSO • Culture medium: 14.6 g anhydrous D-glucose (VWR), 7.1 g Mycological Peptone (Oxoid), 1.4 g granulated Yeast Extract (Merck), QSP 1 liter • Inoculum: spores suspension
(§5) Fungicides were solubilized in DMSO and the solution used to prepare the required range of concentrations. The final concentration of DMSO used in the assay was ≤[…]1%.
A spore suspension of C. lindemuthianum was prepared and diluted to the desired spore density.
(§6) Fungicides were evaluated for their ability to inhibit spores germination and mycelium growth in liquid culture assay. The compounds were added in the desired concentration to the culture medium with spores. After 6 days incubation, fungi-toxicity of compounds was determined by spectrometric measurement of mycelium growth. Inhibition of fungal growth was determined by comparing the absorbance values in wells containing the fungicides with the absorbance in control wells without fungicides.

[10] = system: Alternaria alternata; assay: Alternaria alternata in vitro cell test; assay type: cell-based; settings: 120 h, 20 ppm of active ingredient, 5 days incubation, read-out: efficacy (inhibition of fungal growth)
Method: as §4, §5
A spore suspension of A. alternata was prepared and diluted to the desired spore density.
as §6, with “inhibit spore” for “inhibit spores”, “After 5” for “After 6”

[11] = system: Xanthomonas campestris pv. campestris; assay: In vivo preventive test on Xanthomonas campestris pv. campestris (black rot on cabbage); settings: evaluated 8 or 10 days after inoculation, read-out: efficacy; for pest or weed control at 31 ppm: 31 ppm of active ingredient; for pest or weed control at 125 ppm: 125 ppm of active ingredient
In short: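 Young cabbage plants sprayed with compound in acetone/DMSO/Tween diluted in water; solvent-only controls. Leaves sprayed with bacterial suspension 72 h later, then held 8 or 10 days at 27° C and 95% relative humidity. Efficacy scored 8 or 10 days post-inoculation, 0% matching controls, 100% meaning no disease.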

[12] = given in the preparation examples, method not marked
[13] = method [a]: LC-UV, in an acidic range, with 0.1% formic acid in water and acetonitrile as eluent (linear gradient from 10% to 95% acetonitrile)
[14] = method [a]: LC-UV, acidic range, 0.1% formic acid in water and acetonitrile as eluent (linear gradient 10% to 95% acetonitrile)

SMILES | inhibition at 20 ppm [1] | chromatographic logP [2, 12] | chromatographic logP [2, 13] | pest or weed control at 31 ppm [3] | pest or weed control at 125 ppm [3] | fold induction at 75 ppm [4] | fold induction at 300 ppm [4] | pest or weed control at 31 ppm [5] | pest or weed control at 125 ppm [6] | inhibition at 20 ppm [7] | pest or weed control at 31 ppm [8] | inhibition at 20 ppm [9] | inhibition at 20 ppm [10] | chromatographic logP [2, 14] | pest or weed control at 31 ppm [11] | pest or weed control at 125 ppm [11] | pest or weed control at 500 ppm [3] | pest or weed control at 500 ppm [6] | pest or weed control at 500 ppm ([8]; 500 ppm of active ingredient) | pest or weed control at 8 ppm ([6]; 8 ppm)
NC(=O)CNC(=O)c1sc(Cl)c(Cl)c1Cl [I.066, N-(2-amino-2-oxoethyl)-3,4,5-trichlorothiophene-2-carboxamide] | ≤ 30% | 1.89 | 1.89 | 90 to 100% | 90 to 100% | > 2 | > 2 | 80 to 89% | 90 to 100% | ≤ 30% | 70 to 79% | ≤ 30% | ≤ 30% |  |  |  |  |  |  | 
COC(=O)C(NC(=O)c1sc(Cl)c(Cl)c1Cl)C(=O)OC [I.007] | ≤ 30% |  | 3.31 | 90 to 100% | 90 to 100% | > 2 | > 2 | 80 to 89% | 90 to 100% | ≤ 30% |  | ≤ 30% | ≤ 30% |  |  |  |  |  |  | 
COC(=O)CC[C@H](NC(=O)c1sc(Cl)c(Cl)c1Cl)C(=O)OC [I.139] | ≤ 30% |  |  | 90 to 100% | 90 to 100% | > 2 | > 2 | 80 to 89% | 90 to 100% | ≤ 30% | 70 to 79% | ≤ 30% | ≤ 30% | 3.36 |  |  |  |  |  | 
CCOC(=O)CC[C@H](NC(=O)c1sc(Cl)c(Cl)c1Cl)C(=O)OCC [I.137] | ≤ 30% |  |  | 90 to 100% | 90 to 100% | > 2 | > 2 |  | 90 to 100% | ≤ 30% | 80 to 89% | ≤ 30% | ≤ 30% | 4.21 | 80 to 89% |  |  |  |  | 
CCOC(=O)C(CSC(C)=O)NC(=O)c1sc(Cl)c(Cl)c1Cl (centres unmarked) [I.145] | ≤ 30% |  |  | 90 to 100% | 90 to 100% | > 2 | > 2 | 80 to 89% | 90 to 100% | ≤ 30% |  |  | ≤ 30% | 3.41 | 90 to 100% | 90 to 100% |  |  |  | 
CCOC(=O)C(NC(=O)c1sc(Cl)c(Cl)c1Cl)c1ccccc1 (centres unmarked) [I.064] | ≤ 30% |  | 4.89 | 80 to 89% | 90 to 100% |  | > 2 |  |  | ≤ 30% |  | ≤ 30% | ≤ 30% |  |  | 70 to 79% | 90 to 100% | 90 to 100% | 80 to 89% | 
CCOC(=O)C[C@H](NC(=O)c1sc(Cl)c(Cl)c1Cl)C(=O)OCC [I.138] | ≤ 30% |  |  | 90 to 100% | 90 to 100% | > 2 | > 2 | 90 to 100% | 90 to 100% | ≤ 30% |  |  | ≤ 30% | 4.12 | 70 to 79% |  |  |  |  | 
CCSC(=O)C1(NC(=O)c2sc(Cl)c(Cl)c2Cl)CC1 [I.011, S-ethyl 1-{[(3,4,5-trichloro-2-thienyl)carbonyl]amino}cyclopropanecarbothioate] | ≤ 30% | 4.01 | 4.01 | 90 to 100% | 90 to 100% | > 2 | > 2 |  |  | ≤ 30% |  | ≤ 30% | ≤ 30% |  |  |  | 90 to 100% |  |  | 
CC(C)[C@H](NC(=O)c1sc(Cl)c(Cl)c1Cl)C(N)=O [I.147] | ≤ 30% |  |  |  | 90 to 100% |  |  |  | 90 to 100% | ≤ 30% |  | ≤ 30% | ≤ 30% | 2.67 |  |  | 90 to 100% | 90 to 100% |  | ≥ 90%
